Consider 6 molecules from patent publication US12130283B2, “Methods, systems and compositions for functional in vitro cellular models of mammalian systems” (University of Central Florida Research Foundation, Inc., priority 2012, dated 2024).

The test system of series [1] is colon cancer. The settings on record: cited from earlier work.
The subject of series [2] is patterned neonatal cardiomyocytes. Kind of series: Field potential recordings from patterned neonatal cardiomyocytes on microelectrode arrays. The class given is cell-based, rat. From the text: However, commercial MEAs have electrodes spaced too close to allow effective measurement of conduction velocity, so the long linear surface chemistry patterns developed in [Natarajan 2011] allowed for measurement of conduction velocity in the spontaneously beating patterned cardiomyocytes effectively.
The μCCA in FIG. 4 required the use of liver cells and cardiac myocytes. In FIG. 4GB, pump is 43, other tissues compartment is 44, and bubble is 45. The neonatal cardiac myocyte cultures are obtained from two-day-old rat pups by previously published methods [Dhir 2009; Natajaran 2011]. Cardiac myocytes were plated at a density of […] on the patterned MEAs. Approximately 10 days were required for the cultures to establish themselves. Cardiac myocytes were stable on the patterns for at least 30 days. A silicon rubber gasket was used to isolate the tissue chambers on the μCCA prior to assembly to allow optimization of culture conditions in each chamber. After 10 days, cells were introduced to the liver compartment. […]
The cardiac myocytes were cultured on patterned metal MEAs (Planar 10 μm electrodes, 200 μm separation. Multichannel-systems). […] After a 30 minute incubation period, APs were detected and recorded using built in functions of the Multichannel System software. […] The data was further analyzed using software written using Matlab and Clampfit (Axon instruments).

Series [3] concerns cultured cardiomyocytes. Kind of series: Spontaneous firing rate of cultured cardiomyocytes on patterned MEA (FIG. 14F). The class given is cell-based, human. From the text:
The disclosed systems are based on human cardiac myocytes. As described herein, the incorporation of a functional cardiac system based on patterned cardiac cells integrated with microelectrode assays enabled the measurement of several cardiac parameters including conduction velocity, peak amplitude and spontaneous frequency, QT interval, and relative refractory period (which is related to triangulation). […] As shown in FIGS. 14A-F, cardiac function can be mimicked or simulated using a component comprising a microcantilever detection system (14A) or a patterned MEA (microelectrode array), FIG. 14D. […] Spontaneous or electrical stimulation-evoked force generation of cardiac myocytes was measured based on optical or electrical detection of cantilever-bending. […] The sensor detected the displacement of the laser beam caused by changes in the position of the cantilever. […] Peak contraction force and force-contraction velocity relationships were calculated based on the geometry of the cantilevers and the thickness of cultured cardiac myocytes (determined from immunostaining data). Compounds (such as norepinephrine, verapamil, and sotalol) were applied using traditional methods to the medium and possible changes in force or force-velocity relationship were detected and analyzed using standard statistical methods. […]

The conditions of series [4]: in vivo; cited from earlier work.

With `O=c1[nH]c(=O)n(C2CCCO2)cc1F` (stereo not drawn) [Tegafur], in series [1] (maximizing the concentration of 5-FU in the tumor relative to that in the blood), the “optimal uracil to Tegafur ratio” value was 4 to 1. `CCCCCCCO` [1-Heptanol]: in series [2] (between electrodes 84 and 52, CV before addition of the drug 0.22 m/sec), the “conduction velocity (CV) after Heptanol exposure” value came to 0.011 m/sec.

As to `C[C@@H]1CN(c2c(F)c(N)c3c(=O)c(C(=O)O)cn(C4CC4)c3c2F)C[C@H](C)N1` [sparfloxacin], the “responsiveness of the patterned cardiac system” value in series [2] was “responsive”. As for `NC[C@H](O)c1ccc(O)c(O)c1` [norepinephrine], in series [3], the “effect on spontaneous firing rates” value is “elicits alteration of spontaneous firing rates”. Regarding `CC1(C)C(C=C(Cl)Cl)C1C(=O)OCc1cccc(Oc2ccccc2)c1` (stereo not drawn) [cis-permethrin], the “toxicity of cis isomers relative to trans isomers” value in series [4] was “about ten times more toxic”.

`O=c1cc[nH]c(=O)[nH]1` [uracil]: the “effect on the toxicity of Tegafur” value in series [1] was “enhances the toxicity of Tegafur”.
